The text below walks through data of PubChem BioAssay (NCI).

Where “and” joins values, the source holds several entries; their conditions need not be identical. Equal entries are not always repeated.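 Assay format: 96-well plates, 48-hour exposure. At the GI50, growth is halved. TGI: total growth inhibition.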 A value given as a limit tells only on which side of the number the result lay.

Among the test systems are HT29 colon; NCI-H460 lung; SNB-19 CNS; MOLT-4 leukemia; MCF7 breast; SK-MEL-2 melanoma; DU-145 prostate; IGROV1 ovarian; RPMI-8226 leukemia; SK-MEL-28 melanoma.
Holding throughout (assay): growth of human tumour cells (NCI), 48 h

With `CC(=O)NC1C(OCc2ccccc2)OC(CO)C(O)C1OC(C)C(=O)N[C@@H](C)C(=O)N[C@H](CCC(=O)NCCNCCNc1c2ccccc2nc2cccc([N+](=O)[O-])c12)C(N)=O` (some centres not stated), the TGI was 0.668 µM in the assay with HT29 colon; 0.0486 µM in the assay on NCI-H460 lung; 1.86 µM in the assay on SNB-19 CNS; above 100 µM with MOLT-4 leukemia; 2.17 µM with MCF7 breast; 0.138 µM in the assay with SK-MEL-2 melanoma. The TGI amounted to 0.231 µM with DU-145 prostate, 0.672 µM in the assay on IGROV1 ovarian, 0.381 µM with RPMI-8226 leukemia and 0.723 µM with SK-MEL-28 melanoma.

For the compound `Clc1ccc2c(c1)N(CCCN1CCCC13CCCCC3)c1ccccc1S2`, the TGI in the assay with HT29 colon is 15.7 µM; with NCI-H460 lung, 21.4 µM; in the assay on SNB-19 CNS, 34.3 µM; with MOLT-4 leukemia it was 18.9 µM; with MCF7 breast it was 32.3 µM; in the assay with SK-MEL-2 melanoma, 22.1 µM. Further, the TGI in the assay on DU-145 prostate was 34.2 µM; in the assay on IGROV1 ovarian, 30.3 µM; in the assay on RPMI-8226 leukemia, 11.3 µM; in the assay on SK-MEL-28 melanoma, 30.3 µM.

Regarding `CC(=O)n1[nH]c(=O)n(-c2ccc(Cl)cc2)c1=O`, the TGI in the assay with HT29 colon, with NCI-H460 lung, with SNB-19 CNS, in the assay on MOLT-4 leukemia, in the assay with MCF7 breast and in the assay on SK-MEL-2 melanoma was above 100 µM throughout. The TGI in the assay on DU-145 prostate, with IGROV1 ovarian, with RPMI-8226 leukemia and in the assay on SK-MEL-28 melanoma was above 100 µM throughout.

On to `COC1(CC[C@@H](C)COC2OC(CO)C(O)C(O)C2O)OC2C[C@H]3[C@@H]4CC[C@H]5C[C@@H](OC6OC(CO)C(OC7OC(CO)C(O)C(O)C7O)C(O)C6OC6OC(C)C(O)C(O)C6O)[C@H](O)C[C@]5(C)[C@H]4CC[C@]3(C)C2[C@@H]1C` (some centres not stated), for which the TGI in the assay on HT29 colon is 4.99 µM; in the assay with NCI-H460 lung it was 9.43 µM; in the assay on SNB-19 CNS it was 3.55 µM; in the assay with MOLT-4 leukemia, 8.14 µM; with MCF7 breast it was 7.84 µM; in the assay on SK-MEL-2 melanoma, 3.9 µM. In addition, the TGI in the assay on DU-145 prostate is 3.92 µM; in the assay on IGROV1 ovarian it was 3.19 µM; in the assay on RPMI-8226 leukemia, 4.58 µM; with SK-MEL-28 melanoma, 3.37 µM.

With `COC(=O)C1OC(O[C@H]2CC[C@]3(C)[C@H]4CC=C5[C@@H]6CC(C)(C)CC[C@]6(C(=O)OC6OCC(O)C(O)C6OC6OC(C)C(OC7OCC(O)C(O)C7O)C(O)C6O)[C@H](O)C[C@@]5(C)[C@]4(C)CC[C@H]3C2(C)C)C(O)C(O)C1O` (some centres not stated), the TGI was 9.7 µM and 15.3 µM with HT29 colon; > 100 µM and 33.4 µM in the assay on NCI-H460 lung; 17.5 µM and 21.9 µM with SNB-19 CNS; above 100 µM in the assay with MOLT-4 leukemia; 10.3 µM and 4.43 µM with MCF7 breast; 7.83 µM and 7.96 µM in the assay with SK-MEL-2 melanoma. Further, the TGI is > 57.7 µM and 26.5 µM in the assay with DU-145 prostate; > 80.4 µM and 26.8 µM with IGROV1 ovarian; > 100 µM and 21.3 µM with RPMI-8226 leukemia; 3.57 µM and 4.63 µM in the assay with SK-MEL-28 melanoma. The GI50 in the assay with NCI-H460 lung was 34 µM and 16.9 µM; in the assay on MOLT-4 leukemia, > 42.6 µM and 14.2 µM.

Regarding `CC(C)(C)C1CCC2c3c([nH]c4ccccc34)C3C(=O)N(c4ccc([N+](=O)[O-])cc4)C(=O)C3C2C1` (configuration not stated), the TGI with HT29 colon is 19.2 µM; in the assay on NCI-H460 lung it was above 100 µM; in the assay on SNB-19 CNS, 67.5 µM; with MOLT-4 leukemia it was 56.8 µM; with MCF7 breast, 17.9 µM; with SK-MEL-2 melanoma, 29.3 µM. Besides, the TGI in the assay with DU-145 prostate, with IGROV1 ovarian, with RPMI-8226 leukemia and in the assay with SK-MEL-28 melanoma was above 100 µM in each case.

In the case of `Cc1c(C)c2c(c(N)c1C#N)C(=O)N(N)C2=O`, the TGI with HT29 colon, with NCI-H460 lung, in the assay on SNB-19 CNS, in the assay on MOLT-4 leukemia, in the assay with MCF7 breast and in the assay with SK-MEL-2 melanoma was above 100 µM each time. For the same compound, the TGI in the assay on DU-145 prostate, in the assay on IGROV1 ovarian, in the assay with RPMI-8226 leukemia and in the assay with SK-MEL-28 melanoma was above 100 µM each time.

Turning to `C/C(=C1\N=C(c2ccccc2)OC1=O)c1ccccc1`, the TGI in the assay on HT29 colon, with NCI-H460 lung, in the assay with SNB-19 CNS, in the assay on MOLT-4 leukemia, with MCF7 breast and in the assay on SK-MEL-2 melanoma was above 100 µM throughout. The TGI in the assay on DU-145 prostate, with IGROV1 ovarian, in the assay with RPMI-8226 leukemia and in the assay with SK-MEL-28 melanoma was above 100 µM in each case.

Take `CC(Nc1ccc(Cl)cc1)c1ccncc1` (configuration not stated): the TGI with HT29 colon, in the assay with NCI-H460 lung, in the assay with SNB-19 CNS, in the assay on MOLT-4 leukemia, in the assay with MCF7 breast and in the assay on SK-MEL-2 melanoma was above 100 µM throughout. For the same compound, the TGI with DU-145 prostate is above 100 µM; with IGROV1 ovarian it was above 100 µM; with RPMI-8226 leukemia, 98.3 µM; in the assay on SK-MEL-28 melanoma, above 100 µM.

In the case of `COc1ccc(N2C(=O)C3c4[nH]c5c(C)cccc5c4C4CCC(C(C)C)CC4C3C2=O)cc1` (configuration not stated), the TGI with HT29 colon is 13.8 µM; in the assay on NCI-H460 lung it was 39.7 µM; in the assay with SNB-19 CNS, above 100 µM; in the assay with MOLT-4 leukemia, 11.2 µM; with MCF7 breast, 31.4 µM; in the assay on SK-MEL-2 melanoma, 35.3 µM. In addition, the TGI with DU-145 prostate was 31.2 µM; with IGROV1 ovarian it was 23.5 µM; in the assay with RPMI-8226 leukemia it was above 100 µM; in the assay with SK-MEL-28 melanoma, 31.5 µM.

Consider `CCc1nc(N)c2nc(-c3cccs3)oc2n1`, for which the TGI in the assay on HT29 colon, in the assay with NCI-H460 lung, in the assay on SNB-19 CNS, in the assay on MOLT-4 leukemia, in the assay with MCF7 breast and in the assay on SK-MEL-2 melanoma was above 100 µM throughout. In addition, the TGI in the assay with DU-145 prostate, in the assay on IGROV1 ovarian, in the assay on RPMI-8226 leukemia and in the assay with SK-MEL-28 melanoma was above 100 µM each time.

Regarding `CC(=O)CC1(CBr)Nc2ccc([N+](=O)[O-])cc2NC1=O` (configuration not stated), the TGI with HT29 colon, in the assay with NCI-H460 lung, with SNB-19 CNS, in the assay with MOLT-4 leukemia, in the assay with MCF7 breast and in the assay on SK-MEL-2 melanoma was above 100 µM each time. In addition, the TGI in the assay with DU-145 prostate, in the assay with IGROV1 ovarian, in the assay with RPMI-8226 leukemia and in the assay on SK-MEL-28 melanoma was above 100 µM each time.

With `O=C(O)c1c(CC(Cc2ccc3c(c2)CCC3)C(=O)O)ccc2c1CCC2` (configuration not stated), the TGI in the assay on HT29 colon, in the assay on NCI-H460 lung, in the assay on SNB-19 CNS, in the assay with MOLT-4 leukemia, in the assay on MCF7 breast and in the assay with SK-MEL-2 melanoma was above 100 µM throughout. The TGI in the assay on DU-145 prostate, in the assay with IGROV1 ovarian, with RPMI-8226 leukemia and in the assay on SK-MEL-28 melanoma was above 100 µM throughout.

`CCCCCC[C@H]([C@H](C)O)n1cnc2c(N)ncnc21`: the TGI in the assay with HT29 colon, with NCI-H460 lung, in the assay on SNB-19 CNS, with MOLT-4 leukemia, with MCF7 breast and with SK-MEL-2 melanoma was above 100 µM in each case. The TGI in the assay with DU-145 prostate, in the assay on IGROV1 ovarian, in the assay on RPMI-8226 leukemia and in the assay with SK-MEL-28 melanoma was above 100 µM throughout.

On to `Clc1ccc2c(NCCCCCCNc3ccnc4cc(Cl)ccc34)ccnc2c1`, for which the TGI was found to be 4.44 µM in the assay with HT29 colon; 6.3 µM in the assay on NCI-H460 lung; 13.5 µM with SNB-19 CNS; 8.09 µM in the assay with MOLT-4 leukemia; 7.27 µM in the assay with MCF7 breast; 12.7 µM with SK-MEL-2 melanoma. The TGI in the assay with DU-145 prostate stood at 14.1 µM; in the assay with IGROV1 ovarian, 14.5 µM; in the assay with RPMI-8226 leukemia, 6.53 µM; in the assay with SK-MEL-28 melanoma it was 9.78 µM.
